From US20140045724A1, “FORMULATION SCREENING METHODS, APPARATUSES FOR PERFORMING SUCH METHODS AND FORMULATIONS FORMED BY SUCH METHODS” (priority 2012, published 2014)

Test: Kinetic gradient concentration study in water
Format: physicochemical
Details: CBZ gradient 0.01-0.64 w/v %
Description: CBZ-Ethanol solution was dispensed into 10 columns of wells in a 96-well microplate as follows: row A (80 μL @ 1 mg/mL; 80 μg API); row B (100 μL @ 2 mg/mL; 200 μg); row C (100 μL @ 4 mg/mL; 400 μg); row D (100 μL @ 6 mg/mL; 600 μg); row E (100 μL @ 8 mg/mL; 800 μg); row F (100 μL @ 20 mg/mL; 2 mg); row G (2×100 μL @ 20 mg/mL; 4 mg); row H (4×100 μL @ 20 mg/mL; 8 mg). Thus, a first-pass filling of the wellplate was conducted. The wellplate was placed on a centrivap and the solvent stripped at ambient temperature for ˜4 hours. The wells in rows G and H were refilled with CBZ solution, and the solvent stripped at ambient temperature for ˜1 hour, resulting in a net CBZ charge to rows G and H of 4 mg per well. This procedure was repeated twice for row H, resulting in a net CBZ charge of 8 mg per well. […] To the wells in columns 1 through 10 were charged the appropriate excipient, surfactant, and HPBCD solutions (4 mg/mL; 25 or 80 μL 5% Ethanol solution) that were previously determined in Example 1. Additional 5% Ethanol solvent was added to the wells to give 200 μL total liquid. The solvent (200 μL) was also charged to wells in column 11 (API control) and 12 (solvent only). […]
The microplate was inverted before scanning through the film on a UV-VIS microplate reader (600-900 nm, 2-nm step size; transmittance). […]

- kinetically stable API concentration, sonicated microplate (sonicated wellplate): 0.02 w/v %
- kinetically stable API concentration, unsonicated microplate (unsonicated wellplate): 0.02 w/v %
SMILES: NC(=O)N1c2ccccc2C=Cc2ccccc21 [control, carbamazepine]
